Measured values reported in patent US11401271B2, “Fused heterocyclic compound, pyrazole-ring-containing fused heterocyclic compound, agricultural composition containing thereof, and method of using the composition” (SOUTH CHINA AGRICULTURAL UNIVERSITY, priority 2017, dated 2022).
Like-named read-outs stand apart in the source and are kept apart here.

Key:
Assay type in all cases: in vivo
Plutella xylostella = assay: whole plant or invertebrate; conditions: for mortality at 500 ppm: Plutella xylostella, read-out: Plutella xylostella Mortality (%) 500 ppm
Summary of the method: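 Cabbage leaf discs dipped 5 s in compound at 500 ppm (0.05% Tween-80 aqueous), air-dried, fed to about 35 2nd-instar larvae at 28° C., triplicate. Dead larvae counted after 24 h; mortality (%) corrected against Tween-80 control.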

Spodoptera exigua = assay: whole plant or invertebrate; conditions: for mortality at 500 ppm: Spodoptera exigua, 24 h, read-out: Spodoptera exigua Mortality (%) 500 ppm
Summary of the method: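 Cabbage leaf discs dipped 5 s in 500 ppm compound (0.05% Tween-80 aqueous), air-dried, fed to about 35 2nd-instar larvae at 28° C, three replicates. Deaths counted at 24 h; mortality corrected against Tween-80 control.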

Aphis craccivora = assay: whole plant or invertebrate; conditions: for mortality at 500 ppm: Aphis craccivora, 24 h, read-out: Aphis craccivora Mortality (%) 500 ppm
Summary of the method: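 Wingless adults feeding on bean sprouts were dipped with the sprouts for 5 s in 500 ppm compound in aqueous 0.05% Tween-80, air-dried, then held at 23° C. Dead aphids counted after 24 h, triplicate, with 0.05% Tween-80 as control. Mortality (%) = (control live − treated live)/control live × 100.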

Apis cernan = assay: Toxicity test on adult worker bees of Apis cernan, small beaker method; conditions: 500 ppm, 48 hours
Protocol: (2) Toxicity Test on Adult Worker Bees of Apis cernan.
Adult worker bees of Apis cernan having the same size were selected for test. The worker bees were collected from beekeeping boxes in the daystart of the test day and tested by using a small beaker method.
Operation process: A small amount of absorbent cotton was put into a 5 mL small beaker, 5 mL of a test liquid medicine (a concentration of 500 ppm) was dropped into the absorbent cotton, and stirred gently to make the absorbent cotton completely wet but not leached obviously, then the small beaker was put into a 500 mL large beaker, then 15 worker bees were put into the large beaker, and finally the large beaker was sealed with gauze. After treatment, the large beaker was placed in a dark room of an artificial climate box. After taking the medicine for 48 hours, a number of live and dead worker bees were investigated.

Bombyx mori L. = assay: Toxicity test on 2nd-instar larvae of Bombyx mori L., leaf immersion feeding method; conditions: 1000 ppm, 24 hours
Protocol: (1) Toxicity Test on 2nd-Instar Larvae of Bombyx mori L.
Bombyx mori L. is an important economic insect sensitive to pesticides in an agricultural ecosystem, and is also one of the non-target organisms of environmental ecology listed in pesticide registration of China. The 2nd-instar larvae of Bombyx mori L. were used as test objects and tested by using a leaf immersion feeding method.
Operation process: Samples were weighed accurately, and respectively added with 200 μL of dimethyl sulfoxide to prepare 10 g/L mother liquor which was diluted into a concentration of 1000 ppm with an aqueous solution containing 0.05% of Tween-80 during the test. Young cotyledons of mulberries were collected, washed and air-dried, immersed in a liquid medicine, taken out after 5 seconds, naturally air-dryed, and then transferred into a clean vessel. About 35 2nd -instar larvae of Bombyx mori L. were put into the vessel and fed at a constant temperature of 25° C. Each concentration was repeated 3 times, and an aqueous solution containing 0.05% of Tween-80 was used as a control group. After being treated for 24 hours, a number of dead Bombyx mori L. was counted, and a mortality (%) was calculated according to a formula that mortality (%)=(number of live larvae in the control group −number of treated live larvae)/number of live larvae in the control group * 100%.

Solenopsis invicta = assay: whole plant or invertebrate; conditions: water test tube poison-feeding; for mortality at 100 ppm: Solenopsis invicta
Summary of the method: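 Fire ants fed compound by water test-tube poison-feeding at 100 ppm in aqueous 0.05% Tween-80/5% honey (from 10 g/L DMSO stock), kept at 25 °C. Live and dead ants counted at 24 and 72 h; mortality (%) calculated relative to live ants in the untreated control.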

[1] = 24 h, read-out: Solenopsis invicta Mortality (%) 100 ppm 24 h, 100 ppm, 24 h
[2] = 72 h, read-out: Solenopsis invicta Mortality (%) 100 ppm 72 h, 100 ppm, 72 h

Structure (SMILES) | mortality at 500 ppm (Plutella xylostella) | mortality at 500 ppm (Spodoptera exigua) | mortality at 500 ppm (Aphis craccivora) | Toxicity determination Apis cernan Mortality (%) (Apis cernan) | Toxicity determination Bombyx mori L. Mortality (%) (Bombyx mori L.) | mortality at 100 ppm (Solenopsis invicta; [1]) | mortality at 100 ppm (Solenopsis invicta; [2]) | Plutella xylostella Mortality (%) 500 ppm (Plutella xylostella; 500 ppm, 2nd-instar larvae, leaf immersion feeding) | Spodoptera exigua Mortality (%) 500 ppm (Spodoptera exigua; 500 ppm, 2nd-instar larvae, leaf immersion feeding, 24 hours) | Aphis craccivora Mortality (%) 500 ppm (Aphis craccivora; 500 ppm, wingless adults, impregnation method, 24 hours) | Solenopsis invicta Mortality (%) 100 ppm 24 h (Solenopsis invicta; 100 ppm, 24 h) | Solenopsis invicta Mortality (%) 100 ppm 72 h (Solenopsis invicta; 100 ppm, 72 h)
Nc1ccc2c(c1)-n1nc(C(F)(F)F)cc1NC2(C(F)(F)F)C(F)(F)F [Compound A10] | 86% | 100% | 100% | 12% | 15% | 20% | 87% |  |  |  |  | 
Nc1ccc2c(c1)-n1nc(C(F)(F)F)c(-c3ccc(F)cc3)c1NC2(C(F)(F)F)C(F)(F)F [Compound A12] | 100% | 100% | 100% | 12% | 13% | 44% | 100% |  |  |  |  | 
Nc1ccc2c(c1)-n1nc(C(F)(F)F)c(SC(F)(F)F)c1NC2(C(F)(F)F)C(F)(F)F [Compound A13] | 100% | 100% | 100% | 17% | 17% | 20% | 100% |  |  |  |  | 
CC1(C)Nc2c(N)c(C#N)nn2-c2ccccc21 [Compound A15] | 100% | 100% | 100% | 5% | 8% | 24% | 100% |  |  |  |  | 
CNC(=O)Nc1c(C#N)nn2c1NC(C)(C)c1ccccc1-2 [Compound A19] | 100% | 100% | 100% | 5% | 7% | 20% | 100% |  |  |  |  | 
CC1(C)Nc2c([N+](=O)[O-])c(C#N)nn2-c2ccccc21 [Compound A21] | 100% | 100% | 100% | 6% | 0% | 24% | 100% |  |  |  |  | 
N#Cc1cnn2c1NC(F)(CN)c1ccc(Cl)cc1-2 (centres unmarked) [Compound A22] | 96% | 100% | 100% | 3% | 0% | 30% | 97% |  |  |  |  | 
N#Cc1cnn2c1NC(N)(CN)c1ccc(Cl)cc1-2 (centres unmarked) [Compound A23] | 100% | 100% | 100% | 5% | 0% | 34% | 100% |  |  |  |  | 
C[S+]([O-])c1nn2c(c1C#N)NC(F)(C(F)(F)F)c1ccccc1-2 (centres unmarked) [Compound A26] |  |  |  | 10% | 7% |  |  | 100% | 100% | 100% | 45% | 100%
CCOC(=O)c1c(SC)nn2c1NC(F)(C(F)(F)F)c1ccccc1-2 (centres unmarked) [Compound A27] | 100% | 100% | 100% | 15% | 10% | 30% | 100% |  |  |  |  | 
CSc1nn2c(c1C(=O)N1CCN(C)CC1)NC(F)(C(F)(F)F)c1ccccc1-2 (centres unmarked) [Compound A30] | 100% | 100% | 100% | 8% | 8% | 40% | 100% |  |  |  |  | 
